From PMC5760719, “Biotransformation of polyunsaturated fatty acids to bioactive hepoxilins and trioxilins by microbial enzymes” (Nature Communications, 2018)

Experiments:
Test in all cases: product formation by HPLC
Format in all cases: biochemical
[1] = biological target: T1, 12-LOX (ARA 12-lipoxygenase, MXAN_1745) (Myxococcus xanthus, UniProt Q1DBH8); conditions: pathway reaction with purified enzyme; dioxygenation to 12-HpEPE
T1 sequence (Q1DBH8 1-715): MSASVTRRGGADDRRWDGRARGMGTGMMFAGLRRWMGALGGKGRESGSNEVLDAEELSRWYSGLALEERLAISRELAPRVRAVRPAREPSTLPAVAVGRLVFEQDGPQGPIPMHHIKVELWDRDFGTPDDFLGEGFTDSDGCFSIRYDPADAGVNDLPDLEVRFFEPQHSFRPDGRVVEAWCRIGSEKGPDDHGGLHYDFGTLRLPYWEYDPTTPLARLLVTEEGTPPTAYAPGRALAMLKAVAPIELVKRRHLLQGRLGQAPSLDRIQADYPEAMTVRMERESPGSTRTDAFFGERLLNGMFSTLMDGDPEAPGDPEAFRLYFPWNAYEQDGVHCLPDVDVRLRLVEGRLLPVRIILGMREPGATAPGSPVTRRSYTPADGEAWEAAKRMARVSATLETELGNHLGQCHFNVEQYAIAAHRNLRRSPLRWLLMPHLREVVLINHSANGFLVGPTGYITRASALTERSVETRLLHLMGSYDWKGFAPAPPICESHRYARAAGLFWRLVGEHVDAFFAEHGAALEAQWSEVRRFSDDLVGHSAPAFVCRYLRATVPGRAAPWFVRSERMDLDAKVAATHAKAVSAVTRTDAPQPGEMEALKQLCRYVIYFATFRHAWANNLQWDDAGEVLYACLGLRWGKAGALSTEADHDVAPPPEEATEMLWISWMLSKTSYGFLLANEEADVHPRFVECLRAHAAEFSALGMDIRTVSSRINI

[2] = biological target: T2, 11-LOX (ARA 11-lipoxygenase, MXAN_1744) (Myxococcus xanthus, UniProt Q1DBH9); conditions: pathway reaction with purified enzyme; dioxygenation to 11-HpEPE
T2 sequence (Q1DBH9 1-675): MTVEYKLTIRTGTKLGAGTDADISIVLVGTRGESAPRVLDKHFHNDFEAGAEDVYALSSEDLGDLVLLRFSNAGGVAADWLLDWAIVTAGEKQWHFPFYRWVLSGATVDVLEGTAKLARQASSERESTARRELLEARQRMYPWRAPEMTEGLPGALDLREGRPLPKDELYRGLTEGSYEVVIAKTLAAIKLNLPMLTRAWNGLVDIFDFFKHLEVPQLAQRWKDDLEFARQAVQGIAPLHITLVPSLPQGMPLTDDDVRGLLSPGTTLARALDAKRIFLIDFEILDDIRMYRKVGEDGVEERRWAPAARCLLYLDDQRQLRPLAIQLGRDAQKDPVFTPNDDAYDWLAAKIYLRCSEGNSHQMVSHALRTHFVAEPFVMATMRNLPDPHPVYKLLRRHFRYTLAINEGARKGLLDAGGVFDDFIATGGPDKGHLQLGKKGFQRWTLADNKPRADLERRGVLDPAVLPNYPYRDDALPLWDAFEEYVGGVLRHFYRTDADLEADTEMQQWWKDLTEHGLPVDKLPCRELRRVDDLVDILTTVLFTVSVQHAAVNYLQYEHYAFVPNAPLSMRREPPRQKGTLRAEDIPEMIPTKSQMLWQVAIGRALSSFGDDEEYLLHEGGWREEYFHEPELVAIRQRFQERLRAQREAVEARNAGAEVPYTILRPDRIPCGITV

[3] = biological target: T3, EH (epoxide hydrolase, MXAN_1644) (Myxococcus xanthus, UniProt Q1DBS7); conditions: pathway reaction with purified enzymes; HXD3 formed by 11-LOX, hydrolysis to TrXD3
T3 sequence (Q1DBS7 1-318): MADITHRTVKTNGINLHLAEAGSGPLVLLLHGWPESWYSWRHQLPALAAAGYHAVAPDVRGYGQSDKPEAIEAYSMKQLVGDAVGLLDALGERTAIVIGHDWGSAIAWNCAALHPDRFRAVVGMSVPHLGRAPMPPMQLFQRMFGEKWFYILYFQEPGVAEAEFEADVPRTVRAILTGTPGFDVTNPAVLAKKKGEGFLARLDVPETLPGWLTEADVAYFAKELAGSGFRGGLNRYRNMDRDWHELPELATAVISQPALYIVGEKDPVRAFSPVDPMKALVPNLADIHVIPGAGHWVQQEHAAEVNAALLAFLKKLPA

Structure (SMILES) | product formation by HPLC [1] | product formation by HPLC [2] | product formation by HPLC [3]
CC/C=C\C/C=C\C/C=C\C/C=C\C/C=C\CCCC(=O)O [EPA, eicosapentaenoic acid] | 12-LOX and 11-LOX converted EPA to 12-hydroperoxypentaenoic acid (HpEPE) and 11-HpEPE, respectively | 12-LOX and 11-LOX converted EPA to 12-hydroperoxypentaenoic acid (HpEPE) and 11-HpEPE, respectively | –
CCCCC/C=C\C(O)C1OC1C/C=C\C/C=C\CCCC(=O)O (stereo not drawn) [HXD3] | – | – | HXB3 and HxD3, respectively, which were then converted to TrXB3 and TrXD3, respectively, by EH
